Laboratory results taken from the NIST ThermoML archive (doi:10.1021/je201080c).

Experiments:
[1] = for viscosity / mass density: 101.33 kPa, Liquid; for viscosity: Surface Light Scattering; for mass density: Vibrating tube method; for surface tension liquid-gas: Pendant drop shape
[2] = refractive index (Na D-line) (dimensionless); conditions: 101.33 kPa, Liquid, Standard Abbe refractometry

CCn1cc[n+](C)c1.N#C[B-](C#N)(C#N)C#N [1-ethyl-3-methylimidazolium tetracyanoborate]
Conditions | mass density, [1] [kg/m3] | refractive index, [2] | surface tension liquid-gas, [1] [mN/m] | viscosity, [1] [mPa·s]
283.15 K | 1048.33 | 1.4533 | – | 37.06
288.15 K | 1044.31 | – | – | 27.75
293.15 K | 1040.31 | 1.4499 | – | 21.79
297.04 K | – | – | 47.09 | –
298.15 K | 1036.34 | – | – | –
303.15 K | 1032.4 | 1.4465 | – | 14.65
308.15 K | 1028.48 | – | – | –
313.15 K | 1024.59 | 1.4432 | 43.29 | 10.09
318.15 K | 1020.72 | – | – | –
323.15 K | 1016.87 | – | 41.6 | 7.61
328.15 K | 1013.06 | – | – | –
333.15 K | 1009.26 | – | 39.53 | 5.77
338.15 K | 1005.49 | – | – | –
343.15 K | 1001.74 | – | 38.33 | 4.67
348.15 K | 998.01 | – | – | –
353.15 K | 994.28 | – | 36.52 | 3.7
358.15 K | 990.59 | – | – | –
363.15 K | 986.92 | – | 35.8 | 3.16
